{"source": "patent US7939509B2", "about": "“Partial and full agonists of A1 adenosine receptors” (Gilead Sciences, Inc., priority 2002, dated 2011)", "key": {"awake rats": {"system": "awake rats", "test": "Serum triglyceride (TG) levels in overnight-fasted awake rats", "format": "in vivo, rat", "description": "(§1) All experimental procedures were performed under a protocol approved by the Institutional Animal Care and Use Committee of CV Therapeutics, Inc., and in accordance with the recommendations set forth in the Guide for the Care and Use of Laboratory Animals published by the National Research Council. Male Sprague-Dawley rats (225-250 gm) with either one or two indwelling catheters (carotid and jugular) were purchased from Charles River Laboratories (Wilmington, Mass.). Animals were housed 1 per cage in a room maintained on a 12 h light/dark cycle (light on 06.00-18.00 h) under constant temperature (22-25° C.) and with ad libitum access to food and water.\nThe anti-lipolytic effects of Compound A were studied in awake rats. Animals were fasted overnight before experimental use. On the day of the experiment, animals were put in metabolic cages and left undisturbed to acclimate to the environment for 1-2 hrs. An infusion set (21 G×¾″, 0.8×19 mm U.T.W., 3½″, 9 cm tubing, volume 0.15 ml) was connected to the arterial catheter for blood sampling. A 1% sodium citrate saline solution was used to flush the lines. A pre-treatment blood sample was obtained from each animal to determine baseline values for FFA and TG. Compound A was given via oral gavage, sc injection, iv injection, or iv infusion, as described, for each different series of experiments. Blood samples were collected into serum separator tubes (Becton Dickinson, Franklin Lakes, N.J.) at pre-determined times, Blood was allowed to clot, and then centrifuged at 8000 rpm for 4 min at 4° C. The serum was stored at −80° C. and was thawed at 4° C. for determinations of FFA and TG contents.\nCompound A was synthesized by the Department of Medicinal and Bio-Organic chemistry of CV Therapeutics, Inc. Sodium citrate and Triton WR1339 were purchased from Sigma (St. Louis, Mo.). Nicotinic acid and PEG 400 were purchased from VWR (by EMD Chemicals). Triton WR 1339 was diluted in warm saline (˜37° C.) with frequent vortexing. Nicotinic acid was dissolved in saline. Compound A was dissolved in PEG 400, and then diluted with distilled water to make a 20% PEG drug solution. Serum FFA and TGs were measured using commercial kits from Wako Chemicals, Richmond, Va. Glucose and Insulin were measured using commercial kits from Wako Chemicals USA (Richmond, Va.).\n(§2) All data are reported as mean±SEM. Statistical analysis of data from experiments with 2 treatment groups was performed using the unpaired Student's t-test. Two way analysis of variance followed by Bonferroni's test was used for multiple comparisons. Differences among treatment groups were considered to be significant when the probability of their occurrence by chance alone was <0.05."}, "rats fed high fat diet": {"system": "rats fed high fat diet", "test": "Oral glucose tolerance test after a single dose in high fat diet rats", "format": "in vivo, rat", "conditions": "1 mg/kg oral gavage 15 min before 2 gm/kg glucose load, HF rats", "protocol": "Data is presented as mean±SEM from number of animals indicated in the parenthesis for each group. […] All experimental procedures were performed under a protocol approved by the IACUC (CV Therapeutics, Inc.) and in accordance with the recommendations set forth in the Guide for the Care and Use of Laboratory Animals published by the National Research Council. Male Sprague-Dawley rats (225-250 gm) with either one or two indwelling catheters (carotid and jugular) were obtained from Charles River Laboratories (Wilmington, Mass.). Animals were housed 1 per cage in a room maintained on a 12 h light/dark cycle (light on 06.00-18.00 h) under constant temperature (22-25° C.) and with ad libitum access to food and water. Rats on normal diet (Chow) were fed standard laboratory chow (12% fat, 60% carbohydrate, and 28% protein) throughout the study, while animals in the high fat (HF) diet group were given a diet (TD88137 from Harlan Teklad, Madison, Wis.) containing 42% fat, 43% carbohydrate, and 15% protein. […] On the day of the experiment, animals were put in metabolic cages and left undisturbed to acclimate to the environment for 1-2 hrs. An infusion set (21 G×¾″, 0.8×19 mm U.T.W., 3½″, 9 cm tubing, volume 0.15 ml) was connected to the arterial catheter for blood sampling. A 1% sodium citrate saline solution was used to flush the lines. A pre-treatment blood sample was obtained from each animal to determine baseline values for glucose, insulin, FFA and TG. Blood samples were collected into plasma and serum separator tubes (Becton Dickinson, Franklin Lakes, N.J.) at pre-determined time points. Oral glucose tolerance test (OGTT) was performed by giving 2 gm/kg of glucose load. Compound A was given via an oral gavage 15 minutes prior to the glucose load. […] Statistical analysis of data from experiments with 2 treatment groups was performed using the unpaired Student's t-test. One way analysis of variance (ANOVA) followed by Newman-Keuls posthoc analysis was used for multiple comparisons. Data form OGTT was analyzed by calculating area under the curve (AUC) using prism graphpad software. […]"}, "Sprague-Dawley rats": {"system": "Sprague-Dawley rats", "test": "Acute effect on insulin, FFA and TG in rats fed chow or high fat diet for 2 weeks", "format": "in vivo, rat", "conditions": "1 mg/kg oral gavage, 4 hr fast", "description": "FIG. 8 graphically illustrates the time-course of the effect of Compound A on serum (A) insulin, (B) free fatty acids (FFA), and (C) triglycerides (TG) in rats fed normal diet (ND) and high fat diet (HFD) for 2 weeks as discussed in Example 32. Animals were fasted for four hours before the experiment. Compound A was administered via oral gavage at a dose of 1 mg/kg. Values represent mean±SEM from number of animals indicated in the parenthesis for each group.\nas §1, with “IACUC (CV” for “Institutional Animal Care and Use Committee of CV”, “Inc.)” for “Inc.,”, “obtained” for “purchased”, “water. Rats on normal diet (Chow) were fed standard laboratory chow (12% fat, 60% carbohydrate, and 28% protein) throughout the study, while animals in the high fat (HF) diet group were given a diet (TD88137 from Harlan Teklad, Madison, Wis.) containing 42% fat, 43% carbohydrate, and 15% protein.” for “water.”\nThe anti-lipolytic effects of Compound A (see chemical name below) were studied in awake rats. On the day of the experiment, animals were put in metabolic cages and left undisturbed to acclimate to the environment for 1-2 hrs. An infusion set (21 G×¾″, 0.8×19 mm U.T.W., 3½″, 9 cm tubing, volume 0.15 ml) was connected to the arterial catheter for blood sampling. A 1% sodium citrate saline solution was used to flush the lines. A pre-treatment blood sample was obtained from each animal to determine baseline values for glucose, insulin, FFA and TG. Blood samples were collected into plasma and serum separator tubes (Becton Dickinson, Franklin Lakes, N.J.) at pre-determined time points. Oral glucose tolerance test (OGTT) was performed by giving 2 gm/kg of glucose load. Compound A was given via an oral gavage 15 minutes prior to the glucose load. For chronic experiments Compound A was administered twice a day via subcutaneous injection at a dose of 5 mg/kg for 2 weeks. An OGTT was performed at the end of two weeks at ˜2 hrs after the last dose of Compound A.\nCompound A (2-{6-[((1R,2R)-2-hydroxycyclopentyl)amino]purin-9-yl}(4S,5S,2R,3R)-5-[(2-fluorophenylthio)methyl]oxolane-3,4-diol) was synthesized by the Department of Medicinal and Bio-Organic chemistry of CV Therapeutics, Inc. Sodium citrate was purchased from Sigma (St. Louis, Mo.). PEG 400 was purchased from VWR (by EMD Chemicals). Triton WR1339 was diluted in warm saline (˜37° C.) with frequent vortexing. Compound A was dissolved in. PEG 400, and then diluted with distilled water to make a 20% PEG drug solution. FFA and TGs were measured using commercial kits from Wako Chemicals, (Richmond, Va.). Glucose and Insulin were measured using commercial kits from Thermo Electron Corporation (Waltham, Mass.) and Crystal Chem (Downers Grove, Ill.), respectively.\nas §2, with “One” for “Two”, “variance (ANOVA)” for “variance”, “Newman-Keuls posthoc analysis” for “Bonferroni's test”, “comparisons. Data form OGTT was analyzed by calculating area under the curve (AUC) using prism graphpad software.” for “comparisons.”, “between/among” for “among”"}, "C57BL/J6 mice": {"system": "C57BL/J6 mice", "test": "Hyperinsulinemic euglycemic clamp in C57BL/J6 mice on high fat diet for 12 weeks", "format": "in vivo, mouse", "conditions": "2.5 mg/kg or 5.0 mg/kg ip 15 min prior to clamp", "protocol": "C57BL/J6 mice were maintained on normal chow or a HF diet (Bovine Lard, 23 wt/wt %, 44 energy % provided by the lard) for 12 weeks to induce insulin resistance. At the end of 12 weeks a hyperinsulinemic euglycemic clamp analysis was performed to measure insulin sensitivity in the absence and presence of Compound A. Compound A was given via an ip injection 15 minutes before the clamp protocol was started. After an overnight fast, glucose turnover studies were performed as described previously (6; 11). Briefly, animals were anesthetized; an infusion needle was placed in one of the tail veins. Thereafter, a bolus of insulin was given and a hyperinsulinemic clamp was started by continuous infusion of insulin. Blood samples were taken every 10 minutes (tail bleeding) to monitor plasma glucose levels. A variable infusion of 12.5% D-glucose (in PBS) solution was started at time 0 and adjusted to maintain blood glucose at ˜6.0 mM. When steady state glucose levels were reached (approximately 1 hour after start of the insulin infusion) a final blood sample was taken (for measurement of plasma insulin) and the hyperinsulinemic euglycemic clamp was terminated."}}, "note": "Entries after “also recorded” stand apart in the source; their conditions may differ."}
{"smiles": "O[C@@H]1[C@H](O)[C@@H](CSc2ccccc2F)O[C@H]1n1cnc2c(N[C@@H]3CCC[C@H]3O)ncnc21", "note": "[Compound A, 2-{6-[((1R,2R)-2-hydroxycyclopentyl)amino]purin-9-yl}(4S,5S,2R,3R)-5-[(2-fluorophenylthio)methyl]oxolane-3,4-diol]", "values": [{"measurement": "decrease in TG levels", "setting": "awake rats; 2.5 mg/kg oral gavage", "result": 36, "unit": "%"}, {"measurement": "serum TG level", "setting": "awake rats; 2.5 mg/kg oral gavage, from 54±4 mg/dl, p<0.05", "result": "35 ± 4", "unit": "mg/dL"}, {"measurement": "reduction in TG levels compared to vehicle-treated rats", "setting": "awake rats; 5 mg/kg oral gavage", "result": 41, "unit": "%"}, {"measurement": "serum TG level", "setting": "awake rats; 5 mg/kg oral gavage, p<0.01", "result": "32 ± 4", "unit": "mg/dL"}, {"measurement": "reduction in TG levels compared to vehicle-treated rats", "setting": "awake rats; 10 mg/kg oral gavage", "result": 58, "unit": "%"}, {"measurement": "serum TG level", "setting": "awake rats; 10 mg/kg oral gavage, p<0.01", "result": "23 ± 1", "unit": "mg/dL"}, {"measurement": "reduction of serum triglyceride levels, dose dependence", "setting": "awake rats; 2.5, 5, 10 mg/kg oral gavage", "result": "dose-dependent manner"}, {"measurement": "total glucose response area in OGTT", "setting": "rats fed high fat diet", "result": "no differences"}, {"measurement": "total insulin response area (AUC) in OGTT", "setting": "rats fed high fat diet", "result": "significantly (p<0.05) decreased; also recorded: no different than the insulin response of chow-fed rats given vehicle"}, {"measurement": "decrease in FFA concentration from 0 to 30 min", "setting": "Sprague-Dawley rats; Chow rats", "result": "0.24 ± 0.07", "unit": "mM"}, {"measurement": "decrease in TG concentration from 0 to 30 min", "setting": "Sprague-Dawley rats; Chow rats", "result": "17 ± 3", "unit": "mg/dL"}, {"measurement": "decrease in insulin concentration from 0 to 30 min", "setting": "Sprague-Dawley rats; Chow rats", "result": "0.8 ± 0.32", "unit": "ng/mL"}, {"measurement": "decrease in FFA concentration from 0 to 30 min", "setting": "Sprague-Dawley rats; HF rats", "result": "0.65 ± 0.1", "unit": "mM"}, {"measurement": "decrease in TG concentration from 0 to 30 min", "setting": "Sprague-Dawley rats; HF rats", "result": "46 ± 15", "unit": "mg/dL"}, {"measurement": "decrease in insulin concentration from 0 to 30 min", "setting": "Sprague-Dawley rats; HF rats", "result": "2.37 ± 0.85", "unit": "ng/mL"}, {"measurement": "insulin-mediated glucose disposal / glucose infusion rate (GIR) vs untreated HF mice", "setting": "C57BL/J6 mice", "result": "significant differences (p<0.01); also recorded: significantly greater (p<0.01)"}]}
